Measurements taken from PMC2868945 (Bioorganic & medicinal chemistry, 2010).
pKd, pKi: −log10 of the molar value. Values joined by “and” are separate entries in the source; they are usually repeats but may differ in a detail not shown here. Equal entries are not always repeated. “Also recorded” adds a separate entry of the source.

Assays:
[1] = biological target: recombinant lumazine synthase of M. tuberculosis (Mycobacterium tuberculosis, UniProt P9WHE9); experiment: Kinetic assay of lumazine synthase inhibitors; format: biochemical; details: for Kcat (rate constant for ES ⇌ E + P) / Mechanism / Kis (inhibitor dissociation constant for ES + I ⇌ ESI): LS; for Kcat (rate constant for ES ⇌ E + P): fit parameter of the inhibitor's data set; for Mechanism: most likely inhibition model (DynaFit); for Kis (inhibitor dissociation constant for ES + I ⇌ ESI): pH 7.0, 27 °C, pyrimidinedione substrate varied; for inhibitory activity against lumazine synthase (in words): M. tuberculosis LS
recombinant lumazine synthase of M. tuberculosis, sequence (P9WHE9 whole entry): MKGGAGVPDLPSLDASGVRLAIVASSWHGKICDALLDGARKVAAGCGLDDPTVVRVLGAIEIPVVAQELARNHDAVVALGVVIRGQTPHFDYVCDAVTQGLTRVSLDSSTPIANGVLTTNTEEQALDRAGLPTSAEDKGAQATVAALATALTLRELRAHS

[2] = biological target: recombinant riboflavin synthase of M. tuberculosis (Mycobacterium tuberculosis, UniProt P9WK35); experiment: Kinetic assay of riboflavin synthase inhibitors; format: biochemical; details: for inhibitory activity against riboflavin synthase (in words): M. tuberculosis RS; for Mechanism: most likely inhibition model (DynaFit); for Kis (inhibitor dissociation constant for ES + I ⇌ ESI): pH 7.0, 27 °C
recombinant riboflavin synthase of M. tuberculosis, sequence (P9WK35 whole entry): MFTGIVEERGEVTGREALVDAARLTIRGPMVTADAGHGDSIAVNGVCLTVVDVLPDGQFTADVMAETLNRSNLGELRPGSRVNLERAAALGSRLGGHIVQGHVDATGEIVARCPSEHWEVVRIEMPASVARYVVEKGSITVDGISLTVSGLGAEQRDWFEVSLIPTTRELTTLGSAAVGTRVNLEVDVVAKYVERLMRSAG

[3] = biological target: T1, M. tuberculosis lumazine synthase (Mycobacterium tuberculosis, UniProt P9WHE9); experiment: biochemical; format: binding; details: for binding enthalpy ΔH: 100 mM potassium phosphate buffer, pH 7.0, 30 °C, apparent; for entropy ΔS of binding: calculated from ΔG = ΔH − TΔS
T1 sequence (P9WHE9 whole entry): as the sequence (P9WHE9 whole entry) above

[4] = biological target: pentameric lumazine synthase from Schizosaccharomyces pombe (Schizosaccharomyces pombe, UniProt Q9UUB1); format: binding; details: same experimental limits as for the M. tuberculosis enzyme
pentameric lumazine synthase from Schizosaccharomyces pombe, sequence (Q9UUB1 whole entry): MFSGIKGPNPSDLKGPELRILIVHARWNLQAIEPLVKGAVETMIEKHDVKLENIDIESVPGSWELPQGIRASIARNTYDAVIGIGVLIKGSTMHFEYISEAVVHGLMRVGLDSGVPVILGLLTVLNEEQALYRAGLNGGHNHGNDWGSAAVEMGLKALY

[5] = biological target: icosahedral lumazine synthase from Bacillus anthracis (Bacillus anthracis, UniProt Q81MB5); format: binding
icosahedral lumazine synthase from Bacillus anthracis, sequence (Q81MB5 whole entry, looked up): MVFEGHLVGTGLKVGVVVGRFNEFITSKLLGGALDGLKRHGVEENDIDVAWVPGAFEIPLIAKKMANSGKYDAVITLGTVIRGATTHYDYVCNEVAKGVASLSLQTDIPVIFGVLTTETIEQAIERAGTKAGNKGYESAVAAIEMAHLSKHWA

[6] = biological target: T1, M. tuberculosis lumazine synthase; details: cited from earlier work
[7] = RS, fit parameter of the inhibitor's data set

Molecule	Kcat (rate constant for ES ⇌ E + P) [1] [m^−1]	Mechanism [1]	Kis (inhibitor dissociation constant for ES + I ⇌ ESI) [1]	inhibitory activity against riboflavin synthase (in words) [2]	Ks (substrate dissociation constant for E + S ⇌ ES) [2, 7] [µM]	Kis (inhibitor dissociation constant for ES + I ⇌ ESI) ([2]; RS) [µM]	inhibitory activity against lumazine synthase (in words) [1]	further results
5-(2-Oxo-1,2-dihydrobenzo[cd]indole-6-sulfonamido)hexyl Dihydrogen Phosphate [Compound 40]	0.45 ± 0.01	Uncompetitive	723 ± 91 µM	weak, uncompetitive inhibitors	9.8 ± 0.6	898 ± 187		Kcat (rate constant for ES ⇌ E + P) [2, 7]: 0.56 ± 0.01 m^−1; Mechanism ([2]; RS): Uncompetitive
4-(2-Oxo-1,2-dihydrobenzo[cd]indole-6-sulfonamido)pentylphosphonic Acid [Compound 55]							absolutely no inhibitory activity	
O=C1Nc2ccc(S(=O)(=O)NCCCCP(=O)(O)O)c3cccc1c23 [Compound 54, 4-(2-Oxo-1,2-dihydrobenzo[cd]indole-6-sulfonamido)butylphosphonic Acid]							absolutely no inhibitory activity	
O=C(O)CNS(=O)(=O)c1ccc2c3c(cccc13)C(=O)N2 [Compound 9, 2-(2-oxo-1,2-dihydrobenzo[cd]indole-6-sulfonamido)acetic acid]			58 µM				demonstrated inhibition	
O=C1Nc2ccc(S(=O)(=O)NCCCOP(=O)(O)O)c3cccc1c23 [Compound 27, 3-(2-Oxo-1,2-dihydrobenzo[cd]indole-6-sulfonamido)propyl Dihydrogen Phosphate]	0.45 ± 0.01	Mixed	434 ± 115 µM		5.6 ± 0.04	> 1000		pKd [3]: 3.95; binding enthalpy ΔH ([3]; ITC): -21.8 ± 2.9 kJ/mol; entropy ΔS of binding ([3]; ITC, 30 °C): 0.98 cal·mol^−1·deg^−1
1,1-Difluoro-4-(2-oxo-1,2-dihydrobenzo[cd]indole-6-sulfonamido)pentylphosphonic Acid [Compound 72]	0.57 ± 0.01	Mixed	518 µM and 518 ± 94 µM	inactive	4.1 ± 0.3	> 1000	poor inhibitory activity	
1,1-Difluoro-4-(2-oxo-1,2-dihydrobenzo[cd]indole-6-sulfonamido)butylphosphonic Acid [Compound 71]				inactive			inactive	
CCOC(=O)C(=O)Nc1c(Cl)[nH]c(=O)[nH]c1=O [Compound 77, Ethyl 2-(6-Chloro-2,4,dioxo-1,2,3,4-tetrahydropyrimidin-5-ylamino)-2-oxoethanoate]	0.61 ± 0.02	Mixed	> 1000 µM	weak, uncompetitive inhibitors	7.8 ± 0.3	897 ± 104		Mechanism ([2]; RS): Uncompetitive
CCC(O)CNS(=O)(=O)c1ccc2c3c(cccc13)C(=O)N2 (stereo not drawn) [Compound 32, N-(2-Hydroxybutyl)-2-oxo-1,2-dihydrobenzo[cd]indole-6-sulfonamide]							totally inactive	
O=C1Nc2ccc(S(=O)(=O)NCCO)c3cccc1c23 [Compound 31, N-(2-Hydroxyethyl)-2-oxo-1,2-dihydrobenzo[cd]indole-6-sulfonamide]							totally inactive	
O=C1Nc2ccc(S(=O)(=O)NCCOP(=O)(O)O)c3cccc1c23 [Compound 26, 2-(2-Oxo-1,2-dihydrobenzo[cd]indole-6-sulfonamido)ethyl Dihydrogen Phosphate]	0.41 ± 0.01	Partial	125 ± 57 µM		5.7 ± 0.04	> 1000		
O=C1Nc2ccc(S(=O)(=O)NCCCCOP(=O)(O)O)c3cccc1c23 [Compound 38, 4-(2-Oxo-1,2-dihydrobenzo[cd]indole-6-sulfonamido)butyl Dihydrogen Phosphate]	0.44 ± 0.01	Mixed	572 ± 210 µM		6.5 ± 0.3	> 1000		binding detected by titration calorimetry (in words) [4]: do not indicate a binding reaction; also recorded: did not detect binding; binding detected by titration calorimetry (in words) [5]: do not indicate a binding reaction; also recorded: did not detect binding; pKd [3]: 3.89; binding enthalpy ΔH ([3]; ITC): -31.8 ± 5.44 kJ/mol; entropy ΔS of binding ([3]; ITC, 30 °C): −7.2 cal·mol^−1·deg^−1; stoichiometry (n) of the binding reaction ([3]; ITC, 30 °C, inhibitor molecules per active site): 1
O=c1[nH]c(Cl)c(CCCCOP(=O)(O)O)c(=O)[nH]1 [Compound 11, 4-(6-chloro-2,4-dioxo-1,2,3,4-tetrahydropyrimidin-5-yl)butyl dihydrogen phosphate]								pKi ([6]; M. tuberculosis lumazine synthase): 6.06; inhibition constant (in words) ([6]; lumazine synthase): nanomolar range
1,1-Difluoro-4-(2-oxo-1,2-dihydrobenzo[cd]indole-6-sulfonamido)hexylphosphonic Acid [Compound 73]				inactive			inactive	
O=C1Nc2ccc(S(=O)(=O)NCCCCCOP(=O)(O)O)c3cccc1c23 [Compound 39, 5-(2-oxo-1,2-dihydrobenzo[cd]indole-6-sulfonamido)pentyl Dihydrogen Phosphate]	0.45 ± 0.01	Uncompetitive	563 ± 56 µM	weak, uncompetitive inhibitors	9.8 ± 0.6	971 ± 179		Mechanism ([2]; RS): Uncompetitive
O=C1Nc2ccc(S(=O)(=O)NCCCCCO)c3cccc1c23 [Compound 33, N-(5-Hydroxypentyl)-2-oxo-1,2-dihydrobenzo[cd]indole-6-sulfonamide]							totally inactive	
